Source: US20240116850A1, “COMPOSITIONS AND METHODS RELATED TO BICYCLO[2.2.1] HEPTANAMINE-CONTAINING COMPOUNDS” (The Broad Institute, Inc., priority 2020, published 2024)
One block for each molecule: values may come before it.

Columns and labels:
[1] = Dynamic Vapor Sorption (DVS) hygroscopicity; type: physicochemical; conditions: for hygroscopicity classification: DVS; for DVS (matrix of results from solid form characterization): summary grade Good/Moderate/Poor
Experimental: Dynamic Vapor Sorption (DVS) was measured via a SMS (Surface Measurement Systems) DVS Intrinsic. The relative humidity at 25° C. were calibrated against the deliquescence point of LiCl, Mg(NO3)2 and KCl.

[2] = Physical and chemical stability on storage (LC-MS and XRPD); type: physicochemical; conditions: for decomposition or solid form change in stability assay / Stability (matrix of results from solid form characterization): 1 week stability assay; for Solid Form after storage (XRPD) / Stability: 25/60% RH; 40 C./75% RH; 1 week / Form change?: 1 week; for Stability: 25/60% RH; 40 C./75% RH; 1 week / Form change?: BRD4780 salt solid form, 25/60% RH and 40 C./75% RH; for Stability: 25/60% RH; 40 C./75% RH; 1 week: impurities estimated by LCMS by observation of the TIC; for Form change?: solid form change (XRPD); for Stability (matrix of results from solid form characterization): summary grade Good/Moderate/Poor
Experimental: To compare the physical/chemical stability of the salt candidates, approximate 10 mg of each solid sample was added to a 5-mL glass vial covered with Parafilm® with several pin-holes on it, and then stored under 25° C./60% RH and 40° C./75% RH. After one week storage, solids were taken out for LC-MS and XRPD test to evaluate physical and chemical stability.

[3] = TGA and DSC thermal characterization of salts; type: physicochemical; conditions: summary grade Good/Moderate/Poor
Experimental: TGA data were collected using a TA Discovery5500/Q5000 TGA from TA Instruments. DSC was performed using a TA Discovery2500/Q2000 DSC from TA Instruments.

[4] = Equilibrium solubility in water and bio-relevant media (SGF, FaSSIF, FeSSIF); conditions: for solubility: thermodynamic from solid; for Solubility (matrix of results from solid form characterization): summary grade Good/Moderate/Poor
[5] = system: MUC1-fs; assay: High-content imaging assay of MUC1-fs total cytoplasm intensity in P cells; type: cell-based; conditions: for EC50: MUC1-fs total cytoplasm intensity, P cells, 48 hr incubation; for ECMax: MUC1-fs, DMSO = 0, JQ1 (250 nM) = −100% activity
Experimental: (§1) P cells were seeded 24 hr prior to compound treatment at a density of 12,000 cells/well in 384 well Cell Carrier Ultra plates (6057308, Perkin Elmer), pre-coated with 0.25 mg/mL Synthemax 11 SC Substrate (3535, Corning). Compounds were used at 5 doses (35, 3.5, 0.35, 0.035 and 0.0035 μM) for the primary screen and 10 doses (16, 5.6, 1.8, 0.6, 0.21, 0.07, 0.02, 0.008, 0.002 and 0.0008 μM) for the following screens. The compounds, in two replicates, were transferred from compound source plates to the cell plates using the HighRes Pin Tool. DMSO was used as a negative control and JQ1 (250 nM) (a bromodomain inhibitor) was chosen as a positive control, based on earlier studies showing its potent effect on reducing total MUC1 mRNA levels (data not shown). After 48 hr incubation, cells were fixed for 20 min in 4% PFA (Electron Microscopy Sciences) in PBS, washed twice, then permeabilized (10 min) with 0.5% Triton-X100 (X100-100MVL, Sigma-Aldrich) in PBS and washed once more. Cells were blocked for 10 min at RT with Blocking solution (100 mM Tris HCL pH8; l150 mM NaCL; 5 g/L Blocking Reagent [11096176001, Roche]), then incubated 90 min at RT with one of the following primary antibodies in Roche Blocking solution: 1:500, monoclonal Fab-A-V5H anti-MUC1-fs, AbD22655.2, Bio-Rad; 1:2000, monoclonal mouse anti-MUC1 (214D4), 05-652-KC, Millipore; 1:1000, monoclonal, Rabbit anti-GM130 (D6B1) XP, 12480, Cell signaling technology. The primary antibody cocktail was incubated at RT for 1.5 hr, followed by four PBS wash cycles. The secondary antibody cocktail contained four components that were all prepared at a 1:1000 dilution in the Roche blocking solution and consisted of Alexa Fluor® 488-conjugated AffiniPure F(ab′)2 Fragment Goat anti-Human IgG, 109-546-097, Jackson Immunoresearch; Alexa Fluor® 647-conjugated Goat anti-Rabbit IgG, A-21246, Thermo Fisher Scientific®; Alexa Fluor® 546 Goat anti-mouse IgG, A-21123, Thermo Fisher Scientific® and Hoechst 33342 stain (62249, Thermo Fisher Scientific®). The secondary antibody cocktail was incubated at RT for 45 min, followed by four PBS wash cycles. Finally, plates were sealed with a Plate Loc plate and stored in Liconic incubator at 10° C. until imaging. Following image analysis, three parameters were selected, i) MUC1-fs and ii) MUC1-wt total cytoplasm intensity (averaged per cell) and iii) cell number as was detected by Hoechst 33342 stained nuclei. The levels of MUC1-fs and MUC1-wt found following DMSO and JQ1 were defined as 0 and −100% activity, respectively. The values obtained for all compounds were normalized accordingly. Cell number was normalized to DMSO control.
(§2) The pure enantiomers were profiled in the high-content imaging assay for the ability to reduce the amount of FS MUC1 protein in the cytoplasm (Table 48) following the procedure of Example 4.

[6] = system: MUC1-wt; assay: High-content imaging assay of MUC1-wt total cytoplasm intensity in P cells; type: cell-based; conditions: for EC50: MUC1-wt total cytoplasm intensity, P cells, 48 hr incubation; for WT ECMax: MUC1-wt, DMSO = 0, JQ1 (250 nM) = −100% activity
Experimental: as §1, §2

[7] = fasted state simulated intestinal fluid (FaSSIF), pH 6.5, fassif, FaSSIF solubility, Fasted State Simulated Intestinal Fluid (pH 6.5)
[8] = fed state simulated intestinal fluid (FeSSIF), pH 5, fessif, FeSSIF solubility, Fed State Simulated Intestinal Fluid (pH 5.0)
[9] = simulated gastric fluid (SGF), pH 1.8, simulated gastric fluid, SGF solubility, Simulated gastric fluid (pH 1.8)
[10] = water, H2O solubility (mM; salt)
[11] = water, H2O solubility (mg/mL; salt), HCl salt tested at 100 mg/mL, other salts at 50 mg/mL

Compound: CCC[C@@H]1[C@@H]2CC[C@@H](C2)[C@H]1N.Cl [Compound 108-P2]
- EC50 [5]: 5.6 µM
- ECMax [5]: 22.43%
- EC50 [6]: > 32 µM
- WT ECMax [6]: 16.1%

Compound: Cl.N[C@H]1[C@@H]2CC[C@@H](C2)[C@@H]1C1CCC1 (racemic) [Compound 114-rac]
- EC50 [5]: 12.9 µM
- ECMax [5]: −44.74%
- EC50 [6]: > 32 µM
- WT ECMax [6]: 18.3%

Compound: Cl.N[C@@H]1[C@@H]2CC[C@@H](C2)[C@H]1C1CCC1 (single isomer, unassigned) [Compound 113-P1]
- EC50 [5]: > 32 µM
- ECMax [5]: −13.24%
- EC50 [6]: > 32 µM
- WT ECMax [6]: −9.71%

Compound: C[C@@H]1[C@H]2CC[C@H](C2)[C@H]1N.Cl (single isomer, unassigned) [Compound 104-P1]
- ECMax [5]: −47.64%
- WT ECMax [6]: −13.75%

Compound: CC(C)C[C@H]1[C@H]2CC[C@H](C2)[C@@H]1N.Cl (single isomer, unassigned) [Compound 112-P1]
- EC50 [5]: > 32 µM
- ECMax [5]: 26.46%
- EC50 [6]: < 32 µM
- WT ECMax [6]: 9.15%

Compound: CCC[C@@H]1[C@H]2CC[C@H](C2)[C@H]1N.Cl [Compound 107-P1]
- EC50 [5]: 25.8 µM
- ECMax [5]: −15.72%
- EC50 [6]: > 32 µM
- WT ECMax [6]: 14.07%

More lines, main results first:

- DVS (% H2O uptake at 25 C./80% RH) [1]: 0.15%
- DVS (% H2O uptake at 25 C./95% RH) [1]: 0.16%
- hygroscopicity classification [1]: not hygroscopic
- DVS (matrix of results from solid form characterization) [1]: Good
- Solid Form after storage (XRPD) ([2]; 25° C./60% RH): Fumarate Type A
- Solid Form after storage (XRPD) ([2]; 40° C./75% RH): Fumarate Type A
- Stability: 25/60% RH; 40 C./75% RH; 1 week [2]: No significant impurities
- Form change? [2]: No change
- Stability (matrix of results from solid form characterization) [2]: Good
- TGA/DSC (matrix of results from solid form characterization) [3]: Good
- solubility [4, 7]: 12.4 mg/mL
- solubility [4, 8]: 17.1 mg/mL
- pH ([4]; final solution in FaSSIF): 3.5
- pH ([4]; final solution in FeSSIF): 4.1
- pH ([4]; final solution in H2O): 3.4
- pH ([4]; final solution in SGF): 3.1
- solubility [4, 9]: 11.9 mg/mL
- Solubility (matrix of results from solid form characterization) [4]: Moderate
- solubility [4, 10]: 44.6 mM
- solubility [4, 11]: 12.3 mg/mL
Compound: CC(C)[C@@H]1[C@H]2CC[C@H](C2)[C@H]1N.O=C(O)/C=C/C(=O)O [Fumarate Type A]
- decomposition or solid form change in stability assay [2]: did not display decomposition or solid form change
- XRPD after stirring in medium ([4]; 24 hours in FeSSIF): Additional peaks in the XRPD spectra were observed

- DVS (% H2O uptake at 25 C./80% RH) [1]: 0.02%
- DVS (% H2O uptake at 25 C./95% RH) [1]: 0.07%
- hygroscopicity classification [1]: not hygroscopic
- DVS (matrix of results from solid form characterization) [1]: Good
- Solid Form after storage (XRPD) ([2]; 25° C./60% RH): Maleate Type A
- Solid Form after storage (XRPD) ([2]; 40° C./75% RH): Maleate Type A
- Stability: 25/60% RH; 40 C./75% RH; 1 week [2]: No significant impurities
- Form change? [2]: No change
- Stability (matrix of results from solid form characterization) [2]: Good
- TGA/DSC (matrix of results from solid form characterization) [3]: Good
- solubility [4, 7]: > 27 mg/mL
- solubility [4, 8]: > 26 mg/mL
- pH ([4]; final solution in FaSSIF): 4.6
- pH ([4]; final solution in FeSSIF): 4.7
- pH ([4]; final solution in H2O): 3.8
- pH ([4]; final solution in SGF): 4.9
- solubility [4, 9]: > 28 mg/mL
- Solubility (matrix of results from solid form characterization) [4]: Good
- solubility [4, 10]: > 92.8 mM
- solubility [4, 11]: > 25 mg/mL
Compound: CC(C)[C@@H]1[C@H]2CC[C@H](C2)[C@H]1N.O=C(O)/C=C\C(=O)O [Maleate Type A]
- decomposition or solid form change in stability assay [2]: did not display decomposition or solid form change

- EC50 [5]: > 32 µM
- EC50 [6]: > 32 µM
Compound: Cl.N[C@@H]1[C@@H]2CC[C@@H](C2)[C@H]1C1CCCCC1 (racemic) [Compound 118]
- ECMax [5]: −9.08%
- WT ECMax [6]: −8.52%

- EC50 [5]: 0.295 µM
- EC50 [6]: 12.3 µM
Compound: CC(C)(C)[C@@H]1[C@H]2CC[C@H](C2)[C@H]1N.Cl (racemic) [Compound 115]
- ECMax [5]: −79.02%
- WT ECMax [6]: 71.79%
